In brackets after ≈: the same amount, converted by molar mass. Structures can show the parent of a compound that is named as a salt. Where two headings read alike, the source gives them in different places.
Columns and labels:
[1] = test system: T.b. rhodesiense KETRI 243; experiment: Growth of bloodform trypanosomes in vitro, IC50 at 48 h; assay type: cell-based, Trypanosoma brucei rhodesiense; settings: for IC50: Trypanosoma brucei, RHODESIENSE
Excerpt: (§1) Trypanosome (a) IN VITRO drug screening method: 14 clinical isolates of Trypanosoma brucei rhodesiense (agent of East African Sleeping Sickness) many of which are refractory to standard trypanocides such as diamidines and melarsoprol (Bacchi et al., 1990, Antimicrob Agents Chemother 34, 1183-1188) are maintained as laboratory infections in rats and mice and as frozen stabilates of blood forms. Six of these isolates have been cultivated as blood forms in modified Iscove's medium (Hirumi & Hirumi, 1989, J Parasitol 75, 985-989). These cultivated blood forms are fully infective and serve as the initial screen for trypanocides based on a 24 well culture plate system and readings done on duplicate wells using a Coulter Counter (Bacchi and Yartlett, 1993, Acta Tropica 54, 225-236; Bacchi et al., 1996, Antimicrob Agents Chemother 4, 1448-1453). This screen has proven highly reproducible, needs minimal drug since the volume is limited (1 ml medium/well) and is complete after 48 h. It has proven to be highly predictive of in vivo activity (e.g., Brun et al., 1996, Antimicrob Agents Chemother 40, 1442-1447; Bacchi et al., 1996, supra).
(§2) The trypanosomes studied were Trypanosoma brucei brucei Lab 110 EATRO, which is pathogenic to cattle and other livestock, and several strains of Trypanosoma brucei rhodesiense, a parasite of humans, domestic and wild animals. Strains of T. b. rhodesiense included drug resistant clinical isolates KETRI 243 and 269 and KETRI 243 As-10-3, a highly melarsen- and diamidine-resistant clone of KETRI 243. The 19 extracts were tested in an in vitro screen using a semi-defined medium for growth of bloodstream trypomastigotes at 37° C. (Hirumi & Hirumi, 1989, supra) to determine IC50 values (Bacchi et al., 1996, supra).
(§3) Numerous similarities in leishmanial and trypanosomal lipid uptake and metabolism may explain common natural product drug susceptibility. Inhibitory of cholesterol synthesis, metabolism, and/or excretion described above in the detailed description were tested versus trypanosome isolates grown as bloodforms in HMI-18 medium containing 10% fetal bovine serum.

[2] = test system: T.b. brucei Lab 110 EATRO; experiment: as above; assay type: cell-based, Trypanosoma brucei brucei; settings: for IC50: Trypanosoma brucei
Excerpt: as §1, with “1448-1453).” for “1448-1453). This screen has proven highly reproducible, needs minimal drug since the volume is limited (1 ml medium/well) and is complete after 48 h. It has proven to be highly predictive of in vivo activity (e.g., Brun et al., 1996, Antimicrob Agents Chemother 40, 1442-1447; Bacchi et al., 1996, supra).”
as §2
Inhibitory of cholesterol synthesis, metabolism, and/or excretion described above in the detailed description were tested versus trypanosome isolates grown as bloodforms in HMI-18 medium containing 10% fetal bovine serum.

[3] = test system: T.b. rhodesiense KETRI 269; experiment: as above; assay type: cell-based, Trypanosoma brucei rhodesiense; settings: for IC50: Trypanosoma brucei, RHODESIENSE
Excerpt: as §1, §2, §3

[4] = test system: T.b. rhodesiense KETRI 243 As-10-3; experiment: as above; assay type: cell-based; settings: Trypanosoma brucei
Excerpt: as §1, §2, §3

[5] = molecular target: Squalene Oxidase (Homo sapiens, UniProt Q14534); settings: Abe et al, 1994; cited from earlier work
Sequence of Squalene Oxidase (Q14534 whole entry): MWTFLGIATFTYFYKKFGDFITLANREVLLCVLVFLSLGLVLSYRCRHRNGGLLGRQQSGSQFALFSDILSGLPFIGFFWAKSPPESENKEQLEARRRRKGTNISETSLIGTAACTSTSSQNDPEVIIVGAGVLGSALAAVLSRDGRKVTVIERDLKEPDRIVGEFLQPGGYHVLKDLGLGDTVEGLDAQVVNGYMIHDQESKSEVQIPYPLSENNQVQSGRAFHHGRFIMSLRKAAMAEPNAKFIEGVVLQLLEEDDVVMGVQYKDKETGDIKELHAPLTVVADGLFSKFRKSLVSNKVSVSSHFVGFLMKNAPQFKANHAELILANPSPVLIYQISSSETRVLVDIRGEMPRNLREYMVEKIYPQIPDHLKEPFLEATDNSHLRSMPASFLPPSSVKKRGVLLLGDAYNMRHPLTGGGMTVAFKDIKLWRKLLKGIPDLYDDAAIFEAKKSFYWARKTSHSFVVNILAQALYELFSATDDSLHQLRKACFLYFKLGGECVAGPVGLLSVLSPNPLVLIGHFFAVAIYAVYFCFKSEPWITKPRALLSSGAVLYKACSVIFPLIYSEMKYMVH

[6] = test system: macrophage cholesterol synthesis; settings: cited from earlier work
[7] = molecular target: Squalene Synthetase; settings: Abe et al, 1994; cited from earlier work
[8] = test system: J-774 A.1 macrophages; settings: 10 uM; not from mevalonate; cited from earlier work
[9] = test system: Leishmania; experiment: Mevalonate as nutritional supplement of in vitro cultures; assay type: cell-based; settings: mevalonate-fed cultures
Protocol: To investigate this, we used ^14C-mevalonic acid to determine rate of incorporation by Leishmania (1.0 ng/hr/108 parasites at 25° C, using the respirometric assay. We also looked at mevalonic acid catabolism and found mevalonate is sparingly metabolized to CO2 (less than 1/25 the rate of aspartic acid metabolism, a most rapidly catabolized amino acid, Jackson, et al., 1989, Am J Trop Med Hyg 41, 318-330) even when the promastigotes are maintained under starvation condition for 30 minutes. When mevalonate was added as a nutritional supplement the parasites grew profusely but less rapidly than parallel unsupplemented control cultures. […] Given these preliminary observations: it appears Leishmania (a) incorporate mevalonic acid readily from their environment; (b) catabolism is spared even under starvation conditions; and (c) mevalonic acid can act as a nutritional supplement in vitro.

[10] = Table 7, HMI-18 medium, 10% fetal bovine serum, 48 h
[11] = Table 7, HMI-18 medium, 10% fetal bovine serum, 48 h, read-out: IC50 243
[12] = Table 7, HMI-18 medium, 10% fetal bovine serum, 48 h, read-out: IC50 269
[13] = Table 7, HMI-18 medium, 10% fetal bovine serum, 48 h, read-out: IC50 Lab 110 EATRO
[14] = read-out: IC50 KETRI 243 As-103

## CC(C)n1c(/C=C/C(O)CC(O)CC(=O)O)c(-c2ccc(F)cc2)c2ccccc21 (racemic) [Lescol, 6-Heptenoic acid, 3,5-dihydro-7-[3-(4-fluorophenyl)-1-(1-methylethyl)-1H-indol-2-yl-]-[R*,S*-(E)]-, (+−)-]
[1]; [10]
  IC50 243: >100 µg/mL
[2]; [10]
  IC50 Lab 110 EATRO: >100 µg/mL

## CC[C@H](C)C(=O)O[C@H]1C[C@@H](C)C=C2C=C[C@H](C)[C@H](CC[C@@H]3C[C@@H](O)CC(=O)O3)[C@H]21 (relative stereo) [Mevacor, Butanoic acid, 2-methyl-,1,2,3,7,8,8a-hexahydro-3,7-dimethyl-8-[2-(tetrahydro-4-hydroxy-6-oxo-2H-pyran-2-yl)ethyl]-1-naphthalenyl ester,[1S[1alpha(R*),3alpha,7beta,8beta(2S*,4S*), 8abeta]]-]
[1]; [10]
  IC50 243: 4.4 µg/mL (≈ 10.9 µM)
[3]; [10]
  IC50 269: 6.9 µg/mL (≈ 17.1 µM)
[2]
  IC50 Lab 110 EATRO: 3.3 µg/mL (≈ 8.16 µM)

## CCC(C)(C)C(=O)O[C@H]1C[C@@H](C)C=C2C=C[C@H](C)[C@H](CC[C@@H]3C[C@@H](O)CC(=O)O3)[C@H]21 (relative stereo) [Zocor, [1S-[1-alpha(beta-S*,delta-S*), 2-alpha, 6-alpha,8-beta(R*),8a-alpha]]2,2-dimethylbutanoic acid 1,2,3,7,8,8a-hexahydro-3,7-dimethyl-8-[2-(tetrahydro-4-hydroxy-6-oxo-2H-pyran-2-yl)ethyl]-1-naphthalenyl ester]
[1]; [11]
  IC50: 12.9 µg/mL (≈ 30.8 µM)
[3]; [12]
  IC50: 7 µg/mL (≈ 16.7 µM)
[2]; [13]
  IC50: 1.33 µg/mL (≈ 3.18 µM)

## CCOC(=O)C(C)(C)Oc1ccc(Cl)cc1 [Atromid-S, Propanoic acid, 2-(4-chlorophenoxy)-2-methyl-, ethyl ester]
[1]; [11]
  IC50: > 100 µg/mL
[2]; [13]
  IC50: > 100 µg/mL

## COCc1c(C(C)C)nc(C(C)C)c(/C=C/[C@@H](O)C[C@@H](O)CC(=O)O)c1-c1ccc(F)cc1 [Baycol, 7-[4-(4-fluorophenyl)-5-(methoxymethyl)-2,6-bis(1-methylethyl)-3-pyridinyl]-3,5-dihydroxy-, monosodium salt, [S-(R*,S*-(E))]]-]
[1]; [11]
  IC50: 7.7 µg/mL
[2]; [13]
  IC50: 13 µg/mL
[4]; read-out: IC50 243 As 10-3
  IC50: 52 µg/mL

## CN(C/C=C/C#CC(C)(C)C)Cc1cccc2ccccc12 [Lamisil, 1-Naphthalenemethanamine, N-(6,6-dimethyl-2-hepten-4-ynyl)-N-methyl-, (E)-]
[1]; [11]
  IC50: 86 µg/mL (≈ 295 µM)
[3]; [12]
  IC50: 77 µg/mL (≈ 264 µM)
[2]; [13]
  IC50: 1.3 µg/mL (≈ 4.46 µM)
[4]; read-out: IC50 243 As 10-3
  IC50: > 100 µg/mL

## Cc1ccc(C)c(OCCCC(C)(C)C(=O)O)c1 [Lopoid, Pentanoic acid, 5-(2,5-dimethylphenoxy)-2,2-dimethyl-]
[1]; [11]
  IC50: > 100 µg/mL
[2]; [13]
  IC50: > 100 µg/mL

## Nc1nc(N)nc(Nc2ccc([As]=O)cc2)n1 (stereo not shown) [Melarsen Oxide]
[1]; 48 h, read-out: IC50 KETRI 243
  IC50: 0.0025 µg/mL
[3]; 48 h, read-out: IC50 KETRI 269
  IC50: 0.0066 µg/mL
[2]; 48 h, read-out: IC50 EATRO 110
  IC50: 0.00077 µg/mL
[4]; [14]
  IC50: 0.0072 µg/mL

## CCN(C/C=C/C#CC(C)(C)C)Cc1cccc(OCc2cc(-c3ccsc3)cs2)c1 [NB-598]
[5]
  IC50: 0.75 nM

## CN(C/C=C/c1ccccc1)Cc1cccc2ccccc12 [Naftifine, 1-Naphthalenemethanamine, N-methyl-N-(3-phenyl-2-propenyl)-(E)]
[5]
  IC50: 930 nM

## N=C(N)c1ccc(OCCCCCOc2ccc(C(=N)N)cc2)cc1 [Pentamidine]
[1]; Table 1, 48 hr cultures, HMI-18 medium, read-out: IC50 KETRI 243
  IC50: 0.00186 µg/mL (≈ 0.00546 µM)
[3]; Table 1, 48 hr cultures, HMI-18 medium, read-out: IC50 KETRI 269
  IC50: 0.00192 µg/mL (≈ 0.00564 µM)
[2]; Table 1, 48 hr cultures, HMI-18 medium, read-out: IC50 EATRO 110
  IC50: 0.00048 µg/mL (≈ 0.00141 µM)
[4]; [14]
  IC50: 0.003 µg/mL (≈ 0.00881 µM)

## CC[C@H](C)C(=O)O[C@H]1C[C@H](O)C=C2C=C[C@H](C)[C@H](CC[C@@H](O)C[C@@H](O)CC(=O)O)[C@H]21 [Pravachol, [1S-(1-alpha(beta-S*,delta-S*),2-alpha, 6-alpha,8-beta(R*),8a-alpha]]-1,2,6,7,8,8a-hexahydro-2-methyl-8-(2-methyl-1-oxobutoxy)-beta,delta,6-trihydroxy-1-Naphthaleneheptanoic acid monosodium salt]
[6]; 0.1 mg/ml pravastatin
  LDL increased: 119%
[6]
  concentration that increased cholesterol esterification: ≤ 0.19 mg/mL
  concentration that inhibited cholesterol esterification: > 0.19 mg/mL
[6]; humans, 40 mg/day for 8 weeks
  increased LDL degradation: 57%
  inhibited cholesterol synthesis: 55-62%
[1]; [11]
  IC50: > 100 µg/mL
[2]; [13]
  IC50: > 100 µg/mL

## CC(=O)OC1OC(OC2C(OC3CC[C@@]4(C)C(=CCC5C4CC[C@@]4(C)C5CC5OC6(CC[C@@H](C)CO6)[C@@H](C)[C@@]54O)C3)OC(CO)C(O)C2OC2OC(C)C(O)C(O)C2O)C(O)C(O)C1O (stereo partly shown) [SU-1461, Mannispirostan A]
[2]; Table 2, secondary extracts, * extracts precipitated in medium after 24 h, read-out: IC50 T.b. brucei 110
  IC50: 6.4 µg/mL (≈ 6.89 µM)

## C=C(CC[C@]12O[C@H](C(=O)O)[C@@](O)(C(=O)O)[C@](C(=O)O)(O1)[C@H](OC(=O)/C=C/[C@@H](C)C[C@@H](C)CC)[C@H]2O)[C@@H](OC(C)=O)[C@H](C)Cc1ccccc1 [Squalestatin 1]
[7]
  IC50: 15.2 nM

## C=C(CC[C@]12O[C@H](C(=O)O)[C@@](O)(C(=O)O)[C@](C(=O)O)(O1)[C@H](OC(=O)/C=C/[C@@H](C)C[C@@H](C)CC)[C@H]2O)[C@@H](O)[C@H](C)Cc1ccccc1 [Squalestatin 2]
[7]
  IC50: 15.1 nM

## C=C(CC[C@]12O[C@H](C(=O)O)[C@@](O)(C(=O)O)[C@](C(=O)O)(O1)[C@H](O)[C@H]2O)[C@@H](OC(C)=O)[C@H](C)Cc1ccccc1 [Squalestatin 3]
[7]
  IC50: 5.9 nM

## C=C(CC[C@]12O[C@H](C(=O)O)[C@@](O)(C(=O)O)[C@](C(=O)O)(O1)[C@H](OC(=O)/C=C/[C@@H](C)C[C@@H](C)CC)[C@H]2O)[C@@H](OC(C)=O)[C@H](C)Cc1ccccc1 [Zaragozic acid A]
[7]
  IC50: 0.078 nM

## C/C=C/CCCC/C=C/CCCCC(=O)O[C@@H]1[C@@H](O)[C@@]2(CCC(C)C(O)C(C)C/C=C/c3ccccc3)O[C@H](C(=O)O)[C@@](O)(C(=O)O)[C@]1(C(=O)O)O2 (stereo partly shown) [Zaragozic acid B]
[7]
  IC50: 0.029 nM

## CC(=O)O[C@H](CCC[C@]12O[C@H](C(=O)O)[C@@](O)(C(=O)O)[C@](C(=O)O)(O1)[C@H](OC(=O)CC/C=C/[C@H](C)CCCc1ccccc1)[C@H]2O)[C@H](C)Cc1ccccc1 [Zaragozic acid C]
[7]
  IC50: 0.045 nM

## CC1=C(/C=C/C(C)=C/C=C/C(C)=C/C=C/C=C(C)/C=C/C=C(C)/C=C/C2=C(C)CCCC2(C)C)C(C)(C)CCC1 [beta-carotene]
[8]
  cholesterol synthesis inhibited from acetate: 63%

## C[C@@](O)(CCO)CC(=O)O [mevalonic acid]
[9]
  logarithmic phase growth longer than unsupplemented cultures: 2 fold
[9]; unsupplemented ended at 4-5 days
  duration of logarithmic phase growth: > 10 days
